# Measured values as given in patent US20240101573A1, “MACROCYCLIC K-RAS G12C INHIBITOR, PREPARATION METHOD THEREFOR AND USE THEREOF” (Abbisko Therapeutics Co., Ltd., priority 2020, published 2024).
# Columns and labels:
# H358 = assay: Anti-proliferation 2D CTG test (H358); type: cell-based; conditions: H358 cells, 1500 cells/well, 5 days incubation with compound, CTG readout
# Procedure: (§1) When the cell confluency was 80%, the cells were isolated with 0.25% trypsin. The isolated cells were resuspended in 5 mL of fresh cell culture medium and centrifuged to collect the cells. The number of cells were counted at the same time. Then, the cells were suspended in a culture medium at a moderate concentration. The cells were placed into a 96-well plate with 1500 cells/well for H358 and 500 cells/well for MIAPACA-2. The 96-well plate was placed in an incubator at 37° C. and incubated overnight.
# (§2) 2) Day 1: processing of compound
# (§3) A 2 mM stock solution was serially diluted at 10 points at a ratio of 1:3. 5× culture medium containing the compound was transferred to the corresponding wells of 96 wells. The final peak concentration of the compound was […], and the final concentration of DMSO was 0.5%. The 96-well plate was placed in the incubator at 37° C. and incubated for 5 days.
# (§4) 3) Baseline reading. 4) Day 6: reading of signals
# (§5) A detection reagent (CTG) was added at 50 μL/well, and the signals were read in an Envision instrument.
# (§6) The percentage of inhibition ([…]) at each compound concentration was calculated based on the signals from the HPE and ZPE control wells contained in each assay plate and the fluorescence signals from individual compound wells. The inhibition rate in the ZPE control wells containing the enzyme and substrate was 0%, and the inhibition rate in the HPE control wells only containing the substrate was […]. By testing the compound in terms of numeric concentration and inhibition percentage, the compound concentration required for […] inhibition (IC50) was determined using a four-parameter logarithmic dose-response equation. The endpoint value (IC50) of the reference compound was evaluated in each experiment as a quality control measure. If the endpoint value was within three times the expected value, the experiment was considered acceptable.
# MIA PaCa-2 = assay: Anti-proliferation 2D CTG test (MIA PaCa-2); type: cell-based; conditions: MIAPACA-2 cells, 500 cells/well, 5 days incubation with compound, CTG readout
# Procedure: as §1, §2, §3, §4, §5, §6
# [1] = Homo sapiens, MIA PaCa-2, 120 h
compound,measurement,setting,value
"C=CC(=O)N1CCN(c2nc(=O)n3c4nc(c(F)cc24)-c2c(F)cccc2OCC(OCC(F)F)C(O)c2ccnc(C(C)C)c2-3)[C@@H](C)C1 (stereo partly drawn) [Example 53, (R)-2^4-((S)-4-acryloyl-2-methylpiperazin-1-yl)-6-(2,2-difluoroethoxy)-2^6,3^6-difluoro-7-hydroxy-1^2-isopropyl-2^1,2^2-dihydro-4-oxa-2(1,7)-pyrido[2,3-d]pyrimidina-1(3,4)-pyridina-3(1,2)-benzocycloheptane-2^2-one]",IC50,H358,17 nM
same,IC50,MIA PaCa-2,16 nM
"C=CC(=O)N1CCN(c2nc(=O)n3c4nc(c(F)cc24)-c2c(F)cccc2OCC(O)C(OC(=O)C2CC2)c2ccnc(C(C)C)c2-3)[C@@H](C)C1 (stereo partly drawn) [Example 10, 2^4-((S)-4-acryloyl-2-methylpiperazin-1-yl)-2^6,3^6-difluoro-6-hydroxy-1^2-isopropyl-2^2-oxo-2^1,2^2-dihydro-4-oxa-2(1,7)-pyrido[2,3-d]pyrimidina-1(3,4)-pyridina-3(1,2)-benzocycloheptane-7-yl cyclopropanecarboxylate]",IC50,"H358; Homo sapiens, NCI-H358, 120 h",5 nM
same,IC50,MIA PaCa-2; [1],4 nM
"C=CC(=O)N1CCN(c2nc(=O)n3c4nc(c(F)cc24)-c2c(ccc(Cl)c2F)OCC(O)C(OCC)c2ccnc(C(C)C)c2-3)[C@@H](C)C1 (stereo partly drawn) [Example 68, 2^4-((S)-4-acryloyl-2-methylpiperazin-1-yl)-3^5-chloro-7-ethoxy-2^6,3^6-difluoro-6-hydroxy-1^2-isopropyl-2^1,2^2-dihydro-4-oxa-2(1,7)-pyrido[2,3-d]pyrimidina-1(3,4)-pyridina-3(1,2)-benzocycloheptane-2^2-one]",IC50,H358,27 nM
same,IC50,MIA PaCa-2,22 nM
"C=CC(=O)N1CCN(c2nc(=O)n3c4nc(c(F)cc24)-c2c(F)cccc2OCC(O)C(OC(=O)CC)c2ccnc(C(C)C)c2-3)[C@@H](C)C1 (stereo partly drawn) [Example 6, 2^4-((S)-4-acryloyl-2-methylpiperazin-1-yl)-2^6,3^6-difluoro-6-hydroxy-1^2-isopropyl-2^2-oxo-2^1,2^2-dihydro-4-oxa-2(1,7)-pyrido[2,3-d]pyrimidina-1(3,4)-pyridina-3(1,2)-benzocycloheptane-7-yl propionate]",IC50,"H358; Homo sapiens, NCI-H358, 120 h",10 nM
same,IC50,MIA PaCa-2; [1],10 nM
"C=CC(=O)N1C[C@H](C)N(c2nc(=O)n3c4nc(c(F)cc24)-c2c(ccc(Cl)c2F)OCC(O)C(OCC)c2ccnc(C(C)C)c2-3)C[C@H]1C (stereo partly drawn) [Example 70, 2^4-((2S,5R)-4-acryloyl-2,5-dimethylpiperazin-1-yl)-3^5-chloro-7-ethoxy-2^6,3^6-difluoro-6-hydroxy-1^2-isopropyl-2^1,2^2-dihydro-4-oxa-2(1,7)-pyrido[2,3-d]pyrimidina-1(3,4)-pyridina-3(1,2)-benzocycloheptane-2^2-one]",IC50,H358,16 nM
same,IC50,MIA PaCa-2,7 nM
"C=CC(=O)N1CCN(c2nc(=O)n3c4nc(c(F)cc24)-c2c(F)cccc2OCC(O)C(OCC)c2ccnc(C(C)C)c2-3)[C@@H](C)C1 (stereo partly drawn) [Example 43, (R)-2^4-((S)-4-acryloyl-2-methylpiperazin-1-yl)-7-ethoxy-2^6,3^6-difluoro-6-hydroxy-1^2-isopropyl-2^1,2^2-dihydro-4-oxa-2(1,7)-pyrido[2,3-d]pyrimidina-1(3,4)-pyridina-3(1,2)-benzocycloheptane-2^2-one]",IC50,H358,5 nM
same,IC50,MIA PaCa-2,6 nM
"C=CC(=O)N1CCN(c2nc(=O)n3c4nc(c(F)cc24)-c2c(F)cccc2OCC(O)C(OC)c2ccnc(C(C)C)c2-3)[C@@H](C)C1 (stereo partly drawn) [Example 26, 2^4-((S)-4-acryloyl-2-methylpiperazin-1-yl)-7-methoxy-2^6,3^6-difluoro-6-hydroxy-1^2-isopropyl-2^1,2^2-dihydro-4-oxa-2(1,7)-pyrido[2,3-d]pyrimidina-1(3,4)-pyridina-3(1,2)-benzocycloheptane-2^2-one]",IC50,H358,2 nM
same,IC50,MIA PaCa-2,1 nM
"C=CC(=O)N1CCN(c2nc(=O)n3c4nc(c(F)cc24)-c2c(F)cccc2OCC(O)C(OC)c2ccnc(C(C)C)c2-3)[C@@H](C)C1 (stereo partly drawn) [Example 41, (R)-2^4-((S)-4-acryloyl-2-methylpiperazin-1-yl)-7-methoxy-2^6,3^6-difluoro-6-hydroxy-1^2-isopropyl-2^1,2^2-dihydro-4-oxa-2(1,7)-pyrido[2,3-d]pyrimidina-1(3,4)-pyridina-3(1,2)-benzocycloheptane-2^2-one]",IC50,H358,3 nM
same,IC50,MIA PaCa-2,2 nM
"C=CC(=O)N1CCN(c2nc(=O)n3c4nc(c(F)cc24)-c2c(F)cccc2OCC(OCC)C(O)c2ccnc(C(C)C)c2-3)[C@@H](C)C1 (stereo partly drawn) [Example 29, 2^4-((S)-4-acryloyl-2-methylpiperazin-1-yl)-6-ethoxy-2^6,3^6-difluoro-7-hydroxy-1^2-isopropyl-2^1,2^2-dihydro-4-oxa-2(1,7)-pyrido[2,3-d]pyrimidina-1(3,4)-pyridina-3(1,2)-benzocycloheptane-2^2-one]",IC50,H358,6 nM
same,IC50,MIA PaCa-2,6 nM
"2^4-((S)-4-acryloyl-2-methylpiperazin-1-yl)-2^6,3^6-difluoro-7-hydroxy-1^2-isopropyl-2^1,2^2-dihydro-4-oxa-2(1,7)-pyrido[2,3-d]pyrimidina-1(3,4)-pyridina-3(1,2)-benzocycloheptane-2^2-one [Example 5]",IC50,H358,19 nM
same,IC50,MIA PaCa-2,20 nM
"C=CC(=O)N1CCN(c2nc(=O)n3c4nc(c(F)cc24)-c2c(F)cccc2OCC(O)C(OC)c2ccnc(C(C)C)c2-3)[C@@H](C)C1 (stereo partly drawn) [Example 42, (S)-2^4-((S)-4-acryloyl-2-methylpiperazin-1-yl)-7-methoxy-2^6,3^6-difluoro-6-hydroxy-1^2-isopropyl-2^1,2^2-dihydro-4-oxa-2(1,7)-pyrido[2,3-d]pyrimidina-1(3,4)-pyridina-3(1,2)-benzocycloheptane-2^2-one]",IC50,H358,977 nM
same,IC50,MIA PaCa-2,669 nM
"C=CC(=O)N1CCN(c2nc(=O)n3c4nc(c(F)cc24)-c2c(F)cccc2OCC(OC(C)=O)C(OC(C)=O)c2ccnc(C(C)C)c2-3)[C@@H](C)C1 (stereo partly drawn) [Example 18-R, (R)-2^4-((S)-4-acryloyl-2-methylpiperazin-1-yl)-2^6,3^6-difluoro-1^2-isopropyl-2^2-oxo-2^1,2^2-dihydro-4-oxa-2(1,7)-pyrido[2,3-d]pyrimidina-1(3,4)-pyridina-3(1,2)-benzocycloheptane-6,7-diyl diacetate]",IC50,H358,16 nM
same,IC50,MIA PaCa-2,15 nM
"C=CC(=O)N1C[C@H](C)N(c2nc(=O)n3c4nc(c(F)cc24)-c2c(ccc(Cl)c2F)OCC(O)C(OCC)c2ccnc(C(C)C)c2-3)C[C@H]1C (stereo partly drawn) [Example 77, (S)-(S)-2^4-((2S,5R)-4-acryloyl-2,5-dimethylpiperazin-1-yl)-3^5-chloro-7-ethoxy-2^6,3^6-difluoro-6-hydroxy-1^2-isopropyl-2^1,2^2-dihydro-4-oxa-2(1,7)-pyrido[2,3-d]pyrimidina-1(3,4)-pyridina-3(1,2)-benzocycloheptane-2^2-one]",IC50,H358,523 nM
"C=CC(=O)N1CCN(c2nc(=O)n3c4nc(c(F)cc24)-c2c(ccc(Cl)c2F)OCC(O)C(OCC)c2ccnc(C(C)C)c2-3)[C@@H](C)C1 (stereo partly drawn) [Example 73, (S)-2^4-((S)-4-acryloyl-2-methylpiperazin-1-yl)-3^5-chloro-7-ethoxy-2^6,3^6-difluoro-6-hydroxy-1^2-isopropyl-2^1,2^2-dihydro-4-oxa-2(1,7)-pyrido[2,3-d]pyrimidina-1(3,4)-pyridina-3(1,2)-benzocycloheptane-2^2-one]",IC50,H358,668 nM
